Test results reported in patent US7678583B2, “Method of lysis of erythrocytes” (Immunotech, S.A., priority 2000, dated 2010).

What was measured:
[1] = Experiment 2: conversion of ammonium carbamate into ammonium carbonate, precipitation in 85% of acetone; type: biochemical
erythrocytes = assay: Experiment 3: speed of lysis with carbonic anhydrases from different sources in lysis reagent according to Example 1; type: cell-based; settings: Example 1 reagent, carbonic anhydrase replaced by preparation at 5000 W-A U/l; OD at 700 nm; time to minimum level
Experimental: In a lysis reagent according to Example 1, the component carbonic anhydrase at 50,000 W-A U/I was replaced by preparations of carbonic anhydrase as indicated in the table, each at 5000 W-A U/I. The lysis process was tracked spectrophotometrically (measurement of the OD at 700 nm). The duration of the lysis is determined by the time necessary to achieve a minimum level.

Compound: N.NC(=O)O [100 mM NH2CO2NH4, ammonium carbamate, reference compound]
- Duration before complete precipitation in 85% of acetone ([1]; carbonate precipitates and not the carbamate): 240 min

Compound: CAI, C-4396: carbonic anhydrase I preparation, Sigma, human
- Speed of lysis at 5000 W-A U/l (erythrocytes): 5.06 min

Compound: CAI, C-5290: carbonic anhydrase I preparation, Sigma, human
- Speed of lysis at 5000 W-A U/l (erythrocytes): 3.24 min

Compound: CAII, C-2522: carbonic anhydrase II preparation, Sigma, bovine
- Speed of lysis at 5000 W-A U/l (erythrocytes): 8.51 min

Compound: carbonic anhydrase
- catalysis of the conversion carbonate / carbamate+H2O (in words) [1]: also catalyses the conversion carbonate
